These results are taken from US10000500B2 (PROMEGA CORPORATION, priority 2016, dated 2018).

What all share (format): biochemical
Data set [1] has as its target T1, NANOLUC® Luciferase (Oplophorus gracilirostris, UniProt Q9GV45, A31E/A60N/A81I/F95D/I117V/K70R/L54V/L99Q/M102K/N193R/P142E/Q151K/Q38R/Q45L/V71I/Y165I). The data set can be described thus: Luminescence assay with purified NANOLUC luciferase (Example 7). To be noted: value marked (Autolum): autoluminescence.
Data set [2] deals with T1, NANOLUC® Luciferase. Description: Spectral measurements in various buffers with NANOLUC luciferase (Example 10). To be noted: for NanoGlo (spectral peak, Table 4) / OptiMEM (spectral peak, Table 4) / High / Low / Peak / Width: NanoLuc; for NanoGlo (spectral peak, Table 4): NanoGlo buffer; for High / Low / Peak / Width: emission spectrum. How it is done:
(§1) Each compound to be screened was diluted to a concentration of 100 uM (50 uM final concentration) in Renilla Glo Luciferase Assay buffer (Promega Corporation), NANO-GLO Luciferase Assay Buffer (Promega Corporation), or 20 uM (10 uM final) in OptiMEM+0.1% FBS. NANOLUC® luciferase and Renilla luciferase were serially diluted to 4, 40, and 400 ng/ml in OptiMEM+0.1% FBS. 50 ul of each compound dilution was mixed with 50 ul enzyme dilution and incubated for 1 minute at room temperature. Autoluminescence spectra of AS-353 was measured by adding 20 uM of substrate to OptiMEM+20% FBS and then 50 ul of this dilution was combined with 50 ul of OptiMEM+0.1% FBS. Spectral measurements were measured using a Tecan M-1000 luminometer. ([…]).

Data set [3] concerns the target T2, Renilla luciferase (Renilla reniformis, UniProt P27652).
T2 sequence (P27652 1-311): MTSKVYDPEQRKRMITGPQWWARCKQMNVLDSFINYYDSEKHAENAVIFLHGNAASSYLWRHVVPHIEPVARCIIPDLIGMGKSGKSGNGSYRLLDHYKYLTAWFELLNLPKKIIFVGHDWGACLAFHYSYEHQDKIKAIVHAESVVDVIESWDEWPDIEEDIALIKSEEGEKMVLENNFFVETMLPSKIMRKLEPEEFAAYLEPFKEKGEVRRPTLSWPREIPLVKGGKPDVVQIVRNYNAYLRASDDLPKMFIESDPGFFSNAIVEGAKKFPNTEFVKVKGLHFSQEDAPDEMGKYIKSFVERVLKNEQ
Description: Spectral measurements in various buffers with Renilla luciferase (Example 10). On the set-up: Low / High / Width: unit not given here. To be noted: for RenillaGlo (spectral peak, Table 4): RenillaGlo buffer; for High / Low / Peak / Width: emission spectrum. The method, then:
as §1

Data set [4] concerns the target T1, NANOLUC® Luciferase. The data set can be described thus: Enzyme titration with NanoLuc luciferase (Example 9B). The conditions noted are these: NanoLuc luciferase, FIG. 2B. The method, then: Renilla luciferase and NanoLuc Lucifersase were diluted to a concentration of 4 ug/ml (4 ng/uL) in OptiMEM+0.1% FBS. 10× serial dilutions of the luciferases were then prepared in OptiMEM+0.1% FBS. Each substrate was diluted to 100 uM into Renilla Glo Luciferase assay buffer (Promega Corporation). The 10× enzyme serial dilutions were then combined with the substrate dilutions, 50 ul mixed with 50 ul compound, and incubated for 1 minute at room temperature. Light output for each compound was measured on a GLOMAX®-Multi+ luminometer.

Data set [5] has as its target T2, Renilla luciferase. The data set can be described thus: Km and Vmax substrate titration with Renilla luciferase (Example 8). To be noted: Renilla luciferase 4 ng/ml; Renilla Glo buffer; Michaelis-Menten fit. How it is done: (§2) Each compound to be screened was diluted to a concentration of 100 uM in Renilla Glo Luciferase Assay buffer (Promega Corporation) and then further diluted to 2×serial dilution in Renilla Glo Luciferase Assay Buffer. NANOLUC® luciferase and Renilla luciferase were diluted to a concentration of 4 ng/ml in OptiMEM+0.1% FBS. 50 ul of each compound dilution was then mixed with 50 ul of each enzyme dilution and incubated for 1 minute at room temperature. Light output for each compound was measured on a GLOMAX®-Multi+ luminometer. Km and Vmax were calculated for each enzyme/substrate combination using a GraphPad Prism Michaelis-Menten non-linear fit (FIGS. 1A-ID).

The target of data set [6] is T1, NANOLUC® Luciferase. The data set can be described thus: Luminescence assay with purified NANOLUC luciferase (Example 7). The conditions noted are these: bioluminescence with NANOLUC luciferase. The method, then: Each compound to be screened was dissolved in DMSO (5 mM) and then further diluted to 100 uM in NANO-GLO® Luciferase Assay Buffer. Each diluted substrate was then combined in equal volumes with purified NANOLUC® Luciferase diluted into CO2 independent media+10% FBS. Initial light output for each substrate was measured in a GLOMAXI-Multi+luminometer three minutes after substrate addition and then at five minute intervals as a means to determine signal half-life.
The synthesized coelenterazine analogues (compounds of formula (I) and (II)) were evaluated for their suitability as luciferase substrates. NANOLUC® luciferase was employed for the screening because it is a small (19 kDa), stable, and particularly bright enzyme.

Data set [7] has as its target T1, NANOLUC® Luciferase. Description: Km and Vmax substrate titration with NanoLuc luciferase (Example 8). The method, then: as §2
Substrate in data set [8]: O=c1c(Cc2ccco2)nc2c(Cc3ccccc3)[nH]c(-c3ccccc3)cn1-2
Description: Km and Vmax substrate titration with Renilla luciferase (Example 8). To be noted: other: Renilla luciferase 4 ng/ml; Renilla Glo buffer; Michaelis-Menten fit. The method, then: as §2

T1 sequence (Q9GV45 28-196 with tags or gaps with the stated changes limits assumed): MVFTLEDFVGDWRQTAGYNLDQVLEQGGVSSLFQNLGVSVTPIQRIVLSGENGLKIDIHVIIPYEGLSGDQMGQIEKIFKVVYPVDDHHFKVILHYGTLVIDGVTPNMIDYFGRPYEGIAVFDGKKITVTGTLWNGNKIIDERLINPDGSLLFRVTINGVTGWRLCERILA

With `N#Cc1ccc(-c2[nH]c(-c3cccs3)cn3c(=O)c(Cc4ccco4)nc2-3)s1` [AS-287, 5-(2-(furan-2-ylmethyl)-3-oxo-6-(thiophen-2-yl)-3,7-dihydroimidazo[1,2-a]pyrazin-8-yl)thiophene-2-carbonitrile], the “λmax, nm (Autolum)” value at NANOLUC® Luciferase [1] is 556 (Autolum) nm.

`N#Cc1ccc(-c2[nH]c3ccccc3n3c(=O)c(Cc4ccco4)nc2-3)s1` [AS-293, 5-(2-(furan-2-ylmethyl)-1-oxo-1,5-dihydroimidazo[1,2-a]quinoxalin-4-yl)thiophene-2-carbonitrile]: the “λmax, nm (Autolum)” value on NANOLUC® Luciferase [1] is 596 (Autolum) nm.

Regarding `O=c1c(Cc2ccco2)nc2c(-c3ccnc(F)c3)[nH]c(-c3ccnc(F)c3)cn1-2` [AS-295, 26,8-bis(2-fluoropyridin-4-yl)-2-(furan-2-ylmethyl)imidazo[1,2-a]pyrazin-3(7H)-one], the “λmax, nm (Autolum)” value at NANOLUC® Luciferase [1] is 520 (Autolum) nm.

Turning to `O=c1c(Cc2ccco2)nc2c(-c3ccnc4ccccc34)[nH]c(-c3ccc(O)cc3)cn1-2` [AS-360, 2-(furan-2-ylmethyl)-6-(4-hydroxyphenyl)-8-(quinolin-4-yl)imidazo[1,2-a]pyrazin-3(7H)-one], the “shift of the NanoLuc luciferase spectral properties” value on NANOLUC® Luciferase [2] (FIGS. 3A-3C and 4A-4D) is recorded as “shifted the NanoLuc® luciferase spectral properties to red”. For the same molecule, on NANOLUC® Luciferase [2], the “NanoGlo (spectral peak, Table 4)” value was determined as 589 and the “OptiMEM (spectral peak, Table 4)” value was found to be 583. Also, at NANOLUC® Luciferase [2] (NanoGlo Buffer), the High is on record as 647, the Low is listed as 538, the Peak was determined as 589 and the Width stood at 109. Besides, on NANOLUC® Luciferase [2] (OptiMEM + 0.1% FBS), the High is on record as 646, the Low is reported as 532, the Peak is given as 583 and the Width stood at 114. In addition, at Renilla luciferase [3] (Renilla), the “RenillaGlo (spectral peak, Table 4)” value came out at 487. At Renilla luciferase [3] (Renilla/RenillaGlo), this molecule showed a High of 553, a Low of 451, a Peak of 487 and a Width of 102. Also, the “luminescence rank in the panel tested” value on NANOLUC® Luciferase [4] is on record as “brightest luminescence in the panel tested”. At NANOLUC® Luciferase [4] (substrate 100 uM), the “brighter than both Renilla and NanoLuc luciferase with AS-361” value is around 30 ×.

Take `O=c1c(Cc2ccco2)nc2c(Cc3ccccc3)[nH]c(-c3ccccc3)cn1-2` [Furimazine, 8-benzyl-2-(furan-2-ylmethyl)-6-phenylimidazo[1,2-a]pyrazin-3(7H)-one]: the “NanoGlo (spectral peak, Table 4)” value on NANOLUC® Luciferase [2] is 463. The “OptiMEM (spectral peak, Table 4)” value on NANOLUC® Luciferase [2] amounted to 463; at Renilla luciferase [3] (Renilla, OptiMEM), 430. Besides, the High on NANOLUC® Luciferase [2] (NanoGlo Buffer) is reported as 520; on NANOLUC® Luciferase [2] (OptiMEM + 0.1% FBS) it was 499; at Renilla luciferase [3] (Renilla/RenillaGlo), 490; on Renilla luciferase [3] (Renilla, OptiMEM + 0.1% FBS), 472. For the same molecule, the Low on NANOLUC® Luciferase [2] (NanoGlo Buffer) was 433; on NANOLUC® Luciferase [2] (OptiMEM + 0.1% FBS) it was 430; at Renilla luciferase [3] (Renilla/RenillaGlo), 403; at Renilla luciferase [3] (Renilla, OptiMEM + 0.1% FBS) it was 403. Further, the Peak on NANOLUC® Luciferase [2] (NanoGlo Buffer) was found to be 463; on NANOLUC® Luciferase [2] (OptiMEM + 0.1% FBS) it was 463; on Renilla luciferase [3] (Renilla/RenillaGlo) it was 436; at Renilla luciferase [3] (Renilla, OptiMEM + 0.1% FBS), 430. The Width at NANOLUC® Luciferase [2] (NanoGlo Buffer) was 87; on NANOLUC® Luciferase [2] (OptiMEM + 0.1% FBS), 69; at Renilla luciferase [3] (Renilla/RenillaGlo), 87; at Renilla luciferase [3] (Renilla, OptiMEM + 0.1% FBS) it was 69. Further, the “RenillaGlo (spectral peak, Table 4)” value on Renilla luciferase [3] (Renilla) is 436. Also, the Vmax is 8,910 on Renilla luciferase [5] and 33,470,000 at NANOLUC® Luciferase [7] (NanoLuc 4 ng/ml, Renilla Glo buffer, Michaelis-Menten fit). At NANOLUC® Luciferase [6], the “λmax, nm” value turned out to be 460 nm. For the same molecule, at NANOLUC® Luciferase [7] (FIGS. 1A-1D), the “light produced by NanoLuc luciferase compared to Renilla” value is given as “significantly more light than Renilla”.

B1: Renilla luciferase (Renilla reniformis) (protein)
chain: MTSKVYDPEQRKRMITGPQWWARCKQMNVLDSFINYYDSEKHAENAVIFLHGNAASSYLWRHVVPHIEPVARCIIPDLIGMGKSGKSGNGSYRLLDHYKYLTAWFELLNLPKKIIFVGHDWGACLAFHYSYEHQDKIKAIVHAESVVDVIESWDEWPDIEEDIALIKSEEGEKMVLENNFFVETMLPSKIMRKLEPEEFAAYLEPFKEKGEVRRPTLSWPREIPLVKGGKPDVVQIVRNYNAYLRASDDLPKMFIESDPGFFSNAIVEGAKKFPNTEFVKVKGLHFSQEDAPDEMGKYIKSFVERVLKNEQ
One may read the Km as the substrate concentration at which the rate is half of its maximum. Regarding B1, in data set [8], the Km was determined as 10.6 µM.
